{"source": "patent US20230364079A1", "about": "“COMPOUND AS BRAIN-PERMEABLE BTK OR HER2 INHIBITOR, PREPARATION METHOD THEREFOR, AND USE THEREOF” (CHENGDU HYPERWAY PHARMACEUTICALS CO., LTD., priority 2020, published 2023)", "key": {"BT474 cell proliferation": {"tested_on": "BT474 cell proliferation", "assay": "In vitro cell proliferation inhibitory activity test (CTG), BT474", "type": "cell-based", "procedure": "(§1) Test Example 4: In Vitro Cell Proliferation Inhibitory Activity Test\n(§2) Cells were cultured in 1640 medium, added with 10% inactivated FBS and 1% double antibiotics, and cultured at 37° C. and 5% CO2.\n(§3) (1) Cells were routinely cultured until the cell density was 80%-90%, and the cells were harvested when their number reached the requirement.\n(§4) (2) Cells were resuspended with corresponding culture medium, counted, and prepared into cell suspension at appropriate density.\n(§5) (3) The cell suspension was added to a 96-well plate, 100 µL per well.\n(§6) (4) Cells were cultured overnight in a 37° C., 5% CO2 incubator.\n(§7) (1) The compounds to be tested were diluted with DMSO to make a stock solution with a final concentration of 20 mM for later use.\n(§8) (2) The stock solution was diluted 10 times from 20 mM to 2 mM with DMSO, and then diluted 3 times from 2 mM to 9 concentrations.\n(§9) (3) The blank control wells were cells plus 0.5% DMSO, as high-reading control wells.\n(§10) (4) Wells with no cells and only medium were used as low-reading control wells.\n(§11) 4: Cell Treatment With Compound\n(1) 24 h after the cells were plated, the compounds acted alone, and 99 µL of growth medium was added to each well, followed by 1 µL of the compound prepared in step 3. […]\n(§12) (3) The chemiluminescent signal value was read with the Envision instrument.\nIC50 was calculated by using GraphPad Prism 8 software. […]"}, "TMD8 cell proliferation": {"tested_on": "TMD8 cell proliferation", "assay": "In vitro cell proliferation inhibitory activity test (CTG), TMD8", "type": "cell-based, human", "details": "TMD8 cells, 72 h", "procedure": "as §1, §2, §3, §4, §5, §6, §7, §8, §9, §10, §11\n(1) 24 h after the cells were plated, the compounds acted alone, and 99 µL of growth medium was added to each well, followed by 1 µL of the compound prepared in step 3. The plate was shaken gently to mix uniformly, and then placed in a 37° C., 5% CO2 incubator.\n(2) The cell plate was placed in an incubator for 72 h.\n5: Detection by CTG Method\n(1) The cell plate to be tested was placed at room temperature for 30 min, and 100 µL of medium was discarded from each well.\n(2) 100 µL of CTG reagent (CelltiterGlo kit) was added to each well, placed on a fast shaker for 2 min, and stood at room temperature in the dark for 30 min.\nas §12\nIC50 was calculated by using GraphPad Prism 8 software. The IC50 (half inhibitory concentration) of the compound was derived using the following nonlinear fitting formula, and the results are shown in the following table: […]"}, "BTK wild-type kinase": {"molecular_target": "BTK wild-type kinase (Homo sapiens (Human), UniProt Q06187)", "sequence (Q06187 whole entry)": "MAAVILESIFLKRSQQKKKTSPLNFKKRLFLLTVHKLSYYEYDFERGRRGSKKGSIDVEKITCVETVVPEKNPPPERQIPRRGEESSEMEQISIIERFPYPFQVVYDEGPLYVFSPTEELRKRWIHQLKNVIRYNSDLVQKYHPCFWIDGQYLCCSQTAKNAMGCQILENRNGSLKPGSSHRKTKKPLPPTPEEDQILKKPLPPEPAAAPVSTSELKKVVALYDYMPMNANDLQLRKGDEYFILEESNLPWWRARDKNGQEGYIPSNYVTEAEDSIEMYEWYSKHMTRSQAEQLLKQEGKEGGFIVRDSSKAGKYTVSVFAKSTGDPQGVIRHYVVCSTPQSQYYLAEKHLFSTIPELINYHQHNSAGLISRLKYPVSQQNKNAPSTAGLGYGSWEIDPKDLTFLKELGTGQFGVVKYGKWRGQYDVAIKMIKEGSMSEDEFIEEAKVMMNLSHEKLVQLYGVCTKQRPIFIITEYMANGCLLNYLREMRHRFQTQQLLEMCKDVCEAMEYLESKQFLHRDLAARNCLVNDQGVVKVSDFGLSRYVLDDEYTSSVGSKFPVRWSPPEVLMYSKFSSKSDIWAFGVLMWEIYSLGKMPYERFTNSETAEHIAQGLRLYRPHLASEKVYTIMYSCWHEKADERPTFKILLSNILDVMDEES", "assay": "BTK kinase activity inhibition test in vitro (Caliper EZ Reader)", "type": "biochemical", "procedure,_shortened": "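Compound (10 mM DMSO stock) preincubated with kinase 10 min at room temperature, then ATP plus kinase substrate 2 added, 10 min reaction at room temperature before stop. Substrate conversion read by Caliper mobility shift; inhibition normalised to no-enzyme and no-compound controls, IC50 by variable-slope log(inhibitor) fit.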"}}, "data": [{"smiles": "Nc1nccn2c(C3CCC(CO)OC3)nc(-c3ccc(C(F)(F)c4ccccc4)cc3)c12", "note": "(single isomer, unassigned) [Compound 111-P2]", "values": [{"measurement": "IC50", "setting": "BT474 cell proliferation", "value": 2180, "unit": "nM"}, {"measurement": "IC50", "setting": "TMD8 cell proliferation", "value": 275, "unit": "nM"}, {"measurement": "IC50", "setting": "BTK wild-type kinase", "value": "20 to 100", "unit": "nM"}]}]}
